The subject of this assay is U937 cells adhered to HUVEC stimulated by TNFα. The assay can be described thus: Inhibitory effect on cell adhesion (U937 adhesion to TNFα-stimulated HUVEC). Format: cell-based. To be noted: Homo sapiens, read-out: Inhibitory activity against cell adhesion, Percent inhibition (%); for inhibition at 1 µM: 1 μM test agent; for inhibition at 10 µM: 10 μM test agent. How it is done:
(Inhibitory Effect on Cell Adhesion)
This test was conducted by reference to the method of Ross et al. (J. Biol. Chem., 267, 8537-8543 (1992)). More specifically, after human umbilical venous endothelial cells (HUVEC) were cultured on a 48-well plate to confluent growth, TNFα was added thereto. Upon elapsed time of 5 hours after the addition, U937, which is a human monocytic/histocytic cell fluorescence-labeled with PKH2 (product of Dainippon Pharmaceutical Co., Ltd.), was added in a proportion of 1×10^6 cells per well. After the plate was left at rest at room temperature for 1 hour, unadhered U937 was washed out and lysed in 1% Triton X-100 to measure a remaining fluorescence intensity (excitation wavelength: 480 nm; measuring wavelength: 530 nm). HUVEC and U937 were cultured in EGM-2 (product of Sanko Junyaku K.K.) and 10% FCS-containing RPMI1640, respectively. Each test agent was added to HUVEC upon the addition of TNFα and to U937 24 hours prior to the cell adhesion test. The inhibitory activity was calculated out according to the equation [100−(C−B)/(A−B)×100 (%)], wherein A is the number of U937 cells adhered to HUVEC stimulated by TNFα when no test agent was added, B is the number of U937 cells adhered to HUVEC not stimulated by TNFα when no test agent was added, and C is the number of U937 cells adhered to HUVEC stimulated by TNFα when the test agent was added. As control compounds, Test Compound 1 described in Japanese Patent Application Laid-Open No. 9-143075 and dilazep described in Japanese Patent Application Laid-Open No. 11-92382 were simultaneously evaluated.

Structures can show the parent of a compound that is named as a salt.

`COc1cc(-c2cc(CN3CCN(Cc4ccnc(-c5cc(OC)c(OC)c(OC)c5)c4)[C@@H](C)C3=O)ccn2)cc(OC)c1OC` [Example 5, (3S)-3-methyl-2-oxo-N,N′-bis[[2-(3,4,5-trimethoxyphenyl)pyridin-4-yl]methyl]piperazine 2.5 hydrochloride]: the inhibition (as a rule, the relative decrease from the control value, in per cent) at 1 µM was determined as 51% and the inhibition at 10 µM came to 85%.

For the compound `COc1cc(-c2cc(CN3C[C@H](C)N(Cc4ccnc(-c5cc(OC)c(OC)c(OC)c5)c4)C[C@H]3C)ccn2)cc(OC)c1OC` [Example 2, trans-N,N′-bis[[2-(3,4,5-trimethoxyphenyl)-pyridin-4-yl]methyl]-2,5-dimethylpiperazine tetrahydrochloride], the inhibition at 1 µM was determined as 42% and the inhibition at 10 µM worked out at 64%.

With `COc1cc(-c2cc(CN3CCN(Cc4ccnc(-c5cc(OC)c(OC)c(OC)c5)c4)[C@@H](C(C)C)C3=O)ccn2)cc(OC)c1OC` [Example 6, (3S)-3-isopropyl-2-oxo-N,N′-bis[[2-(3,4,5-trimethoxyphenyl)pyridin-4-yl]methyl]piperazine sesqui-hydrochloride], the inhibition at 1 µM turned out to be 63% and the inhibition at 10 µM came to 77%.

For the compound `COc1cc(-c2cc(CN3CCN(Cc4ccnc(-c5cc(OC)c(OC)c(OC)c5)c4)[C@@H](CC(C)C)C3=O)ccn2)cc(OC)c1OC` [Example 8, (3S)-3-(2-methylpropyl)-2-oxo-N,N′-bis[[2-(3,4,5-trimethoxyphenyl)pyridin-4-yl]methyl]piperazine 2.5 hydrochloride], the inhibition at 1 µM was found to be 63% and the inhibition at 10 µM amounted to 79%.

For the compound `COc1cc(-c2cc(CN3C[C@@H](C)N(Cc4ccnc(-c5cc(OC)c(OC)c(OC)c5)c4)[C@@H](C)C3)ccn2)cc(OC)c1OC` [Example 1, cis-N,N′-bis[[2-(3,4,5-trimethoxyphenyl)pyridin-4-yl]methyl]-2,6-dimethylpiperazine tetrahydrochloride], the inhibition at 1 µM worked out at 76% and the inhibition at 10 µM was determined as 78%.

As for `COc1cc(-c2cc(CN3CCN(Cc4ccnc(-c5cc(OC)c(OC)c(OC)c5)c4)C(CO)C3)ccn2)cc(OC)c1OC` (centres unmarked) [Example 3, N,N′-bis[[2-(3,4,5-trimethoxyphenyl)pyridin-4-yl]methyl]-2-hydroxymethylpiperazine dimaleate], the inhibition at 1 µM is 34% and the inhibition at 10 µM was determined as 90%.

For `COc1cc(-c2cc(CN3CCN(Cc4ccnc(-c5cc(OC)c(OC)c(OC)c5)c4)[C@@H](Cc4ccccc4)C3=O)ccn2)cc(OC)c1OC` [Example 9, (3S)-3-benzyl-2-oxo-N,N′-bis[[2-(3,4,5-trimethoxyphenyl)pyridin-4-yl]methyl]piperazine sesqui-hydrochloride], the inhibition at 1 µM is 38% and the inhibition at 10 µM is 86%.

Take `COc1cc(C(=O)OCCCN2CCCN(CCCOC(=O)c3cc(OC)c(OC)c(OC)c3)CC2)cc(OC)c1OC` [Dilazep, dilazep, reference compound]: the inhibition at 1 µM came to 12% and the inhibition at 10 µM amounted to 25%.

In the case of `COc1cc(-c2cc(CN3CCN(Cc4ccnc(-c5cc(OC)c(OC)c(OC)c5)c4)[C@H](C(C)C)C3=O)ccn2)cc(OC)c1OC` [Example 7, (3R)-3-isopropyl-2-oxo-N,N′-bis[[2-(3,4,5-trimethoxyphenyl)pyridin-4-yl]methyl]piperazine tri-hydrochloride], the inhibition at 1 µM was 51% and the inhibition at 10 µM came to 70%.

Take `COc1cc(-c2cc(CN3CCN(Cc4ccnc(-c5cc(OC)c(OC)c(OC)c5)c4)C(=O)C3)ccn2)cc(OC)c1OC` [Example 4, 2-oxo-N,N′-bis[[2-(3,4,5-trimethoxyphenyl)-pyridin-4-yl]methyl]piperazine 2.5 hydrochloride]: the inhibition at 1 µM turned out to be 60% and the inhibition at 10 µM is 79%.

Source of the values: patent US6432957B1, “Piperazine derivative” (Kowa Co., Ltd., priority 2001, dated 2002).
